# Assay results: paper PMC5651017, “Molecular Insight into the Acryloyl-CoA Hydration by AcuH for Acrylate Detoxification in Dimethylsulfoniopropionate-Catabolizing Bacteria” (Frontiers in Microbiology, 2017)
# Legend:
# Type in all cases: biochemical
# Conditions in all cases: acryloyl-CoA made in situ by D. shibae PrpE from 0.5 mM acrylate, CoA and ATP; 1 uM RdAcuH, 5 min, 5 mM MgCl2, 100 mM Tris-HCl pH 8.0
# RdAcuH [1] = biological target: T1, RdAcuH (Roseovarius nubinhibens, UniProt A3SKA6); experiment: HPLC / LC-MS of hydration to 3-HP-CoA
# T1 construct: gene ISM_05820; no signal peptide; pET-22b (NdeI/XhoI) in E. coli BL21(DE3), Ni-NTA purified; active site between NTD of one subunit and CTD of the neighbouring subunit
# T1 sequence (A3SKA6 1-258): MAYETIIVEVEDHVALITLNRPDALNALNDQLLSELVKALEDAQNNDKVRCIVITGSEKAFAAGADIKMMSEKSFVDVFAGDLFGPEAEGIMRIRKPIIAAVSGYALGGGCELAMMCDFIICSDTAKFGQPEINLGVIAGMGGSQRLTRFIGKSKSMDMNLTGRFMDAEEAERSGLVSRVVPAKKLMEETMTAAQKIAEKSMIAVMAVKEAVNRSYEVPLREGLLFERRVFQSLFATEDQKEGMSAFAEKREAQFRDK
# RdAcuH [2] = biological target: T2, RdAcuH (Roseovarius nubinhibens, UniProt A3SKA6, E132A); experiment: relative activity, 3-HP-CoA formation by HPLC / LC-MS
# T2 construct: gene ISM_05820; no signal peptide; pET-22b (NdeI/XhoI) in E. coli BL21(DE3), Ni-NTA purified; active site between NTD of one subunit and CTD of the neighbouring subunit
# T2 sequence (A3SKA6 entry or part of it E132A): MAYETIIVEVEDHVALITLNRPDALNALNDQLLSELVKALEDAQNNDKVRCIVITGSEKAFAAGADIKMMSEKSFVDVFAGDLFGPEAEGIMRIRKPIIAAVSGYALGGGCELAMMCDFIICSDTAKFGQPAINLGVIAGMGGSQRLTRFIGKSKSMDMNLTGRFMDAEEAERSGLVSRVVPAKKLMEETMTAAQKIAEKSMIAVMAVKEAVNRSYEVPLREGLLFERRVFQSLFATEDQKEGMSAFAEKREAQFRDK
# RdAcuH [3] = biological target: T3, RdAcuH (Roseovarius nubinhibens, UniProt A3SKA6, E112A); experiment: as above
# T3 construct: gene ISM_05820; no signal peptide; pET-22b (NdeI/XhoI) in E. coli BL21(DE3), Ni-NTA purified; active site between NTD of one subunit and CTD of the neighbouring subunit
# T3 sequence (A3SKA6 entry or part of it E112A): as the sequence (A3SKA6 entry or part of it E132A) above, with E112A, A132E counted along it
SMILES,HPLC / LC-MS of hydration to 3-HP-CoA (RdAcuH [1]),relative activity (RdAcuH [2]),relative activity (RdAcuH [3])
CC(C)(COP(=O)(O)OP(=O)(O)OC[C@H]1O[C@@H](n2cnc3c(N)ncnc32)[C@H](O)[C@@H]1OP(=O)(O)O)[C@@H](O)C(=O)NCCC(=O)NCCSC(=O)CCO [3-HP-CoA],RdAcuH has acryloyl-CoA hydratase activity and can catalyze acryloyl-CoA to 3-HP-CoA,–,–
C=CC(=O)SCCNC(=O)CCNC(=O)[C@H](O)C(C)(C)COP(=O)(O)OP(=O)(O)OC[C@H]1O[C@@H](n2cnc3c(N)ncnc32)[C@H](O)[C@@H]1OP(=O)(O)O [acryloyl-CoA],acryloyl-CoA was hydrated by RdAcuH and 3-HP-CoA was produced,mutations on each of the glutamates to alanine resulted in the inactivation of RdAcuH,mutations on each of the glutamates to alanine resulted in the inactivation of RdAcuH
